These results are taken from US9187426B2, “Organic compounds” (Novartis AG, priority 2008, dated 2015).

The structures appear in SMILES notation.

A word on the IC50: it is the concentration that gives 50% inhibition. For orientation: melting point means the temperature of the solid-liquid transition.

In data set [1] the target is T1, Stearoyl-CoA Desaturase (SCD1) (Mus musculus, UniProt P13516).
T1 construct: Reactions are started by adding 50 μL of microsomes (1.25 mg/mL); from tissue; host or cells: liver microsomes of male ICR outbred mice on a high-carbohydrate, low-fat diet
T1 sequence (P13516 1-355): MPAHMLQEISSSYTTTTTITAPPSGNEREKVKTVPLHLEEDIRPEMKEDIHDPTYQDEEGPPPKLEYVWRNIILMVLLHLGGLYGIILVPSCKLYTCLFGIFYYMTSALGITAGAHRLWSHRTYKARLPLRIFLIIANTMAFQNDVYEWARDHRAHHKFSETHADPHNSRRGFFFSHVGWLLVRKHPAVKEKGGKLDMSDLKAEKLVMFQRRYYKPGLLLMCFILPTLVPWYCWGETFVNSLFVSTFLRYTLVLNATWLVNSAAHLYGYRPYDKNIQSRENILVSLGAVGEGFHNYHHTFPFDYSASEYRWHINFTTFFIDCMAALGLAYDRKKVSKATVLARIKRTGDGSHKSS
Description: SCD microsomal assay: release of 3H2O from [9,10-3H]stearoyl-CoA in mouse liver microsomes. It counts as biochemical. The following applies: 15 min incubation, 25° C. An excerpt: Measuring Stearoyl-CoA Desaturase Inhibition Activity of a Test Compound Using Mouse Liver Microsomes
The identification of compounds of the invention as SCD inhibitors was readily accomplished using the SCD microsomal assay procedure described in Shanklin J. and Summerville C., Proc. Natl. Acad. Sci. USA (1991), Vol. 88, pp. 2510-2514.
Male ICR outbread mice, on a high-carbohydrate, low fat diet, under light halothane (15% in mineral oil) anesthesia are sacrificed by exsanguination during periods of high enzyme activity. Livers are immediately rinsed with cold 0.9% NaCl solution, weighed and minced with scissors. All procedures are performed at 4° C. unless specified otherwise. Livers are homogenized in a solution (1/3 w/v) containing 0.25 M sucrose, 62 mM potassium phosphate buffer (pH 7.0), 0.15 M KCl, 15 mM N-acetyleysteine, 5 mM MgCl2, and 0.1 mM EDTA using 4 strokes of a Potter-Elvehjem tissue homogenizer. The homogenate is centrifuged at 10,400×g for 20 min to eliminate mitochondria and cellular debris. The supernatant is filtered through a 3-layer cheesecloth and centrifuged at 105,000×g for 60 min. The microsomal pellet is gently resuspended in the same homogenization solution with a small glass/teflon homogenizer and stored at −70° C. The absence of mitochondrial contamination is enzymatically assessed. The protein concentration is measured using bovine serum albumin as the standard.
Desaturase activity is measured as the release of ^3H2O from [9,10-^3H]stearoyl-CoA. Reactions per assay point conditions are as follows: 2 μL 1.5 mM stearoyl-CoA, 0.25 μL 1 mCi/mL ^3H stearoyl CoA, 10 μL 20 mM NADH, 36.75 μL 0.1 M PK buffer (K2HPO4/NaH2PO4, pH 7.2). The test compound or control solution is added in a 1 μL volume. Reactions are started by adding 50 μL of microsomes (1.25 mg/mL). The plates are mixed and after 15 min incubation on a heating block (25° C.), the reactions are stopped by the addition of 10 μL 60% PCA. An aliquot of 100 μL is then transferred to a filter plate pretreated with charcoal and the plate centrifuged at 4000 rpm for 1 minute. The flow through containing the ^3H2O released by the SCD1 desaturation reaction is added to scintillation fluid and the radioactivity measured in a Packard TopCount. The data is analysed to identify the IC50 for test compounds and reference compounds.

For `NC(=O)c1ccnc(N2CCN(Cc3ccc(C(F)(F)F)cc3)C2=O)c1` [Example 26.31, 2-(2-Oxo-3-(4-(Trifluoromethyl)-benzyl)imidazolidin-1-yl)isonicotinamide], the melting point lay in the range of 167 to 169 °C. In addition, in data set [1], the IC50 stood at 180 nM.
Consider `NC(=O)c1ccnc(N2CCN(Cc3ccc(OC(F)(F)F)cc3)C2=O)c1` [Example 26.32, 2-(2-Oxo-3-(4-(trifluoromethoxy)-benzyl)imidazolidin-1-yl)isonicotinamide], for which the melting point is 175 to 176 °C. In addition, in data set [1], inhibition was half-maximal at 1200 nM (IC50).
